Experimental data published in patent US6641840B2, “Sustained release formulations for growth hormone secretagogues” (Pfizer Inc., priority 2000, dated 2003).
Where no end group is shown, it is not given here. [ ]: non-standard residue; d: D form.

Columns and labels:
rat pituitary cells [1] = test: Pituitary cell desensitization - intracellular calcium assay; type: cell-based
From the text: Thus, it appears that sustained release formulations would not provide the desired in vivo response. The experiment was designed so that changes in intracellular calcium concentration could be continuously monitored during successive exposures of the same cells to the indicated test substances.
Rat pituitary cells were isolated as described in Example 3 and plated onto poly-D-lysine-coated glass coverslips, one coverslip per well in 12-well plates, at a density of 3-4×10^5 cells per well. Assays were performed 3-4 days after plating. Cells were loaded with 5 μM fura-2 AM (Molecular Probes, Eugene, Oreg.), a calcium-sensitive fluorescent dye, by incubation for 30 min at room temperature. Fura-2 was dissolved in dimethylsulfoxide at 5 mM, then diluted into KRH buffer (115 mM NaCl, 5.4 mM KCl, 1.8 mM CaCl2, 1 mM MgCl2, 0.96 mM NaH2PO4, 25 mM HEPES, 6 mM glucose and 0.05% bovine serum albumin, adjusted to pH 7.3)
To assay changes in intracellular calcium concentration, a coverslip with attached cells was mounted in a perfusion chamber on the stage of an inverted microscope (Zeiss Axiovert 135 with epifluorescence, Geschaftsbereich Mikroscopie, Oberkochen, Germany) and continuously superfused at room temperature. After superfusion with KRH for 1-2 min, baseline fluorescence was recorded. Each test substance was applied for 2 min, followed by washout with KRH prior to stimulation with the next test substance. Up to 20 individual cells per field were selected for recording and were excited alternately at wavelengths of 380 nm or 340 nm (slit width 15 nm). Fluorescence emission at 510 nm was collected at 5 sec intervals by a low light CCD camera (Hamamatsu Photonics, Hamamatsu City, Japan), and digitized images for the two excitation wavelengths were analyzed using Videoprobe software (ETM Systems, Irvine, Calif.) to determine the 340 nm/380 nm fluorescence ratio for individual cells during each time interval. The 340 nm/380 nm fluorescence ratio is proportional to the concentration of intracellular calcium.

rat pituitary cells [2] = test: Pituitary cell desensitization - growth hormone release assay; type: cell-based
Description: The experiment was designed so that cultures were exposed to a growth hormone secretagogue for 60 min, then growth hormone release was measured during a subsequent 15 min exposure to the same or different growth hormone secretagogue.
Anterior pituitary glands from male Wistar rats (150-175 g, Charles River, Laboratories, Wilmington, Mass.) were collected in Hank's Balanced Salt Solution (#14170, Life Technologies, Gaithersburg, Md.). Glands were minced with a scalpel, then incubated with bacterial protease (Type IX, EC3.4.24.4, #P-6141, Sigma Chemicals, Milwaukee, Wis.) at 10 U/ml to release individual cells. Cells were pelleted by centrifugation at 200×g for 15 min, then suspended in culture medium and plated at a density of 6.0-6.5×10^4 cells per 0.5 ml per well in 48-well tissue culture plates (#3848, Costar Corporation, Cambridge, Mass.). Culture medium consisted of D-MEM (Dulbecco's Modified Eagle Medium) with high glucose and sodium bicarbonate (#11965) supplemented with 10% heat-inactivated horse serum (#26050, Life Technologies, Gaithersburg, Md.), 2.5% fetal bovine serum (#16140, Life Technologies, Gaithersburg, Md.), 0.1 mM MEM non-essential amino acids (#11140, Life Technologies, Gaithersburg, Md.), 100 U/ml nystatin (#15340, Life Technologies, Gaithersburg, Md.) and 50 ug/ml gentamicin sulfate (#15750, Life Technologies, Gaithersburg, Md.). Cultures were maintained for 3-4 days in a humidified, 5% CO2/95% air incubator at 37° C. prior to performing assays for growth hormone release.
For growth hormone release assays, cultures were pre-equilibrated at 37° C. in pre-warmed release medium for 1 h in the presence of a growth hormone secretagogue or excipient (Pretreatment). Release medium consisted of Phenol Red-free D-MEM without bicarbonate (#23800, Life Technologies, Gaithersburg, Md.) supplemented with 25 mM N-[2-hydroxyethyl]piperazine-N′-[2-ethanesulfonic acid] (HEPES), 4.5 g/L glucose, 0.11 g/L sodium pyruvate, 0.584 g/L […] and 0.5% bovine serum albumin (#A-7888, Sigma Chemicals, Milwaukee, Wis.), adjusted to pH 7.4. After pretreatment, the medium was removed and replaced with fresh pre-warmed release medium containing a growth hormone secretagogue or excipient at 0.5 ml/well for 15 min (Treatment). Medium from the Treatment was collected, centrifuged to remove any cells, then assayed for growth hormone content by a conventional double-antibody radioimmunoassay using monkey anti-growth hormone antisera (NIDDK anti-rGH-S-5) and reference rat growth hormone standard (NIDDK-rGH-RP) from Dr. A. F. Parlow, Harbor-UCLA Medical Center, Torrance, Calif. Immune complexes were precipitated using goat anti-monkey immunoglobulin G (#55418, Cappel, Durham, N.C.).
Growth hormone secretagogue solutions were prepared at 1000 times the desired concentration and diluted into pre-warmed release medium immediately before use. Peptides such as His-D-Trp-Ala-Trp-Ala-Trp-D-Phe-Lys-NH2 (GHRP-6, #8061, Peninsula Laboratories, Belmont, Calif.) and rat growth hormone releasing factor (GHRH, #8068, Peninsula Laboratories, Belmont, Calif.) were dissolved at 100 μM in 4 mM acetic acid, 10% ethanol, 0.1% bovine serum albumin; other growth hormone secretagogues were dissolved at 5 mM in dimethyl sulfoxide.

`[Cl-].[K+]` [KCl, reference compound] was tested, and the “response of the same (refractory) cells” value (rat pituitary cells [1]; after re-exposure to Compound A) was “remained responsive”.

“GHRH: rat growth hormone releasing factor (GHRH, #8068, Peninsula Laboratories) (HADAIFTSSYRRILGQLYARKLLHEIMNRQQGERNQEQRSRFN; Somatoliberin; UniProt P09916 31-73, looked up) [reference compound]” showed a GH release (rat pituitary cells [2]; pretreatment 100 nM GHRH 60 min, treatment none) of 12.67 ± 3.31 ng/mL/15 min.

Molecule “H[dW]AWAW[dF]K-NH2 [GHRP-6, reference compound]” has a GH release (rat pituitary cells [2]; pretreatment 100 nM GHRP-6 60 min, treatment 100 nM GHRP-6 15 min) of 7.83 ± 0.98 ng/mL/15 min, a GH release (rat pituitary cells [2]; pretreatment 100 nM GHRP-6 60 min, treatment none) of 9.06 ± 1.87 ng/mL/15 min and a GH release (rat pituitary cells [2]; pretreatment none, treatment 100 nM GHRP-6 15 min, mean ± SD, n = 4) of 31.01 ± 8.46 ng/mL/15 min. The “cellular responses (intracellular calcium) on repeated exposure” value (rat pituitary cells [1]; successive 2 min exposures with washout) was “homologous desensitization”.
